test system: rabbit skeletal muscle myofibril preparations (approximately 90% fast fibers); test: Activation of fast skeletal muscle fibers: enzymatic activity of myofibril preparations (PUMA assay system); type: biochemical; set-up: unit not given here; conditions: detergent treated myofibrils at pCa25%, 500 μM ATP; cells marked †: Mean value
Description: Fast fiber activators were identified by measuring the enzymatic activity of muscle myofibril preparations using the proprietary PUMA™ (see, e.g., U.S. Pat. Nos. 6,410,254, 6,743,599, 7,202,051, and 7,378,254) assay system. Myofibril preparations consisted of rabbit skeletal muscle (approximately 90% fast fibers) that had been treated with a detergen (triton X-100) to remove cellular membranes and then homogenized. This preparation retained all of the sarcomeric components in a native conformation and the enzymatic activity was still regulated by calcium. Compounds were tested using a myofibril suspension and a level of calcium sufficient to increase enzymatic activity of the myofibrils to 25% of their maximal rate (termed pCa25%). Enzymatic activity was tracked via a kinetic assay with a UV absorption readout. Hits were identified as compounds that increased the rate of enzymatic activity by greater than 40% at 40 μM. Myofibril preparations are calcium regulated and were screened at a level of calcium sufficient to produce a 25% increase in enzymatic rate. Detergent treated myofibrils were incubated with 500 μM ATP and 40 μM compound and a kinetic read of UV absorbance performed. Data was normalized to control wells.

Row | Molecule | AC1.4 Median
1 | 4-[6-chloro-1-(ethylpropyl)-2-hydroxyimidazo[4,5-b]pyridin-7-yl]benzenecarbonitrile | 0.405†
2 | 6-chloro-1-(ethylpropyl)-7-(2-fluorophenyl)imidazo[4,5-b]pyridin-2-ol | 0.230†
3 | 6-chloro-1-(ethylpropyl)-7-(3-fluorophenyl)imidazo[4,5-b]pyridin-2-ol | 0.248†
4 | 6-chloro-1-(ethylpropyl)-7-(4-fluorophenyl)imidazo[4,5-b]pyridin-2-ol | 0.074†
5 | 6-chloro-1-(ethylpropyl)-7-(4-methylphenyl)imidazo[4,5-b]pyridin-2-ol | 0.336†
6 | 6-chloro-1-(ethylpropyl)-7-(5-fluoro(2-pyridyl))imidazo[4,5-b]pyridin-2-ol | 0.268†
7 | 6-chloro-1-(ethylpropyl)-7-(6-methoxy(2-pyridyl))imidazo[4,5-b]pyridin-2-ol | 0.562†
8 | 6-chloro-1-(ethylpropyl)-7-[4-(trifluoromethyl)phenyl]imidazo[4,5-b]pyridin-2-ol | 0.274†
9 | 6-chloro-7-(3-chlorophenyl)-1-(ethylpropyl)imidazo[4,5-b]pyridin-2-ol | 0.330†
10 | 6-chloro-7-(4-chloro-3-fluorophenyl)-1-(ethylpropyl)imidazo[4,5-b]pyridin-2-ol | 0.116†
11 | 6-chloro-7-(4-chlorophenyl)-1-(ethylpropyl)imidazo[4,5-b]pyridin-2-ol | 0.074†
12 | 6-chloro-7-(5-chloro(2-pyridyl))-1-(ethylpropyl)imidazo[4,5-b]pyridin-2-ol | 0.320†
13 | 6-chloro-7-(5-chloro(2-thienyl))-1-(ethylpropyl)imidazo[4,5-b]pyridin-2-ol | 0.084†
14 | 7-(3,4-difluorophenyl)-6-chloro-1-(ethylpropyl)imidazo[4,5-b]pyridin-2-ol | 0.106†
15 | CC[C@@H](CO)n1c(O)nc2ncc(Cl)c(-c3ccc(F)cc3)c21 [1-(1S)-1-ethyl-2-hydroxyethyl)-6-chloro-7-(4-fluorophenyl)imidazo[4,5-b]pyridin-2-ol] | 0.363†

same assay, conditions: detergent treated myofibrils at pCa25%, 500 μM ATP; median value (no †)

Row | Molecule | AC1.4 Median
16 | 1-(ethylpropyl)-7-phenylimidazo[4,5-b]pyridin-2-ol | 2.083
17 | 2-[6-chloro-1-(ethylpropyl)-2-hydroxyimidazo[4,5-b]pyridin-7-yl]benzamide | 36.169
18 | 2-[6-chloro-1-(ethylpropyl)-2-hydroxyimidazo[4,5-b]pyridin-7-yl]benzenecarbonitrile | 2.886
19 | 3-[6-chloro-1-(ethylpropyl)-2-hydroxyimidazo[4,5-b]pyridin-7-yl]benzenecarbonitrile | 3.336
20 | 6-[6-chloro-1-(ethylpropyl)-2-hydroxyimidazo[4,5-b]pyridin-7-yl]pyridine-3-carbonitrile | 2.892
21 | 6-chloro-1-(ethylpropyl)-7-(1-methyl(1H-indazol-5-yl))imidazo[4,5-b]pyridin-2-ol | 5.365
22 | 6-chloro-1-(ethylpropyl)-7-(1-methyl(1H-indazol-6-yl))imidazo[4,5-b]pyridin-2-ol | 20.233
23 | 6-chloro-1-(ethylpropyl)-7-(1-methylpyrazol-3-yl)imidazo[4,5-b]pyridin-2-ol | 1.7950
24 | 6-chloro-1-(ethylpropyl)-7-(1-methylpyrazol-4-yl)imidazo[4,5-b]pyridin-2-ol | 17.805
25 | 6-chloro-1-(ethylpropyl)-7-(2-fluoro-4-methoxyphenyl)imidazo[4,5-b]pyridin-2-ol | 0.942
26 | 6-chloro-1-(ethylpropyl)-7-(2-methoxy(4-pyridyl))imidazo[4,5-b]pyridin-2-ol | 2.808
27 | 6-chloro-1-(ethylpropyl)-7-(2-methyl(1,2,3,4-tetraazol-5-yl))imidazo[4,5-b]pyridin-2-ol | 6.404
28 | 6-chloro-1-(ethylpropyl)-7-(2-methyl(4-pyridyl))imidazo[4,5-b]pyridin-2-ol | 14.091
29 | 6-chloro-1-(ethylpropyl)-7-(2-methylphenyl)imidazo[4,5-b]pyridin-2-ol | 1.688
30 | 6-chloro-1-(ethylpropyl)-7-(2-pyridyl)imidazo[4,5-b]pyridin-2-ol | 1.616
31 | 6-chloro-1-(ethylpropyl)-7-(3-fluoro(4-pyridyl))imidazo[4,5-b]pyridin-2-ol | 1.709
32 | 6-chloro-1-(ethylpropyl)-7-(3-fluoro-4-methoxyphenyl)imidazo[4,5-b]pyridin-2-ol | 2.102
33 | 6-chloro-1-(ethylpropyl)-7-(3-hydroxyphenyl)imidazo[4,5-b]pyridin-2-ol | 3.021
34 | 6-chloro-1-(ethylpropyl)-7-(3-methoxyphenyl)imidazo[4,5-b]pyridin-2-ol | 2.001
35 | 6-chloro-1-(ethylpropyl)-7-(3-methylphenyl)imidazo[4,5-b]pyridin-2-ol | 0.482
36 | 6-chloro-1-(ethylpropyl)-7-(3-pyridyl)imidazo[4,5-b]pyridin-2-ol | 8.030
37 | 6-chloro-1-(ethylpropyl)-7-(4-methoxyphenyl)imidazo[4,5-b]pyridin-2-ol | 0.728
38 | 6-chloro-1-(ethylpropyl)-7-(4-methyl(2-pyridyl))imidazo[4,5-b]pyridin-2-ol | 11.301
39 | 6-chloro-1-(ethylpropyl)-7-(4-pyridyl)imidazo[4,5-b]pyridin-2-ol | 3.015
40 | 6-chloro-1-(ethylpropyl)-7-(5-fluoro(3-pyridyl))imidazo[4,5-b]pyridin-2-ol | 4.428

Row | Molecule | AC1.4 Median
41 | 6-chloro-1-(ethylpropyl)-7-(5-methyl(1,2,4-oxadiazol-3-yl))imidazo[4,5-b]pyridin-2-ol | 4.017
42 | 6-chloro-1-(ethylpropyl)-7-(5-methyl(2-pyridyl))imidazo[4,5-b]pyridin-2-ol | 5.708
43 | 6-chloro-1-(ethylpropyl)-7-(5-methylpyrimidin-2-yl)imidazo[4,5-b]pyridin-2-ol | 18.694
44 | 6-chloro-1-(ethylpropyl)-7-(6-methoxy(3-pyridyl))imidazo[4,5-b]pyridin-2-ol | 2.232
45 | 6-chloro-1-(ethylpropyl)-7-(6-methyl(2-pyridyl))imidazo[4,5-b]pyridin-2-ol | 4.048
46 | 6-chloro-1-(ethylpropyl)-7-(6-methyl(3-pyridyl))imidazo[4,5-b]pyridin-2-ol | 12.164
47 | 6-chloro-1-(ethylpropyl)-7-[2-(methoxymethyl)phenyl]imidazo[4,5-b]pyridin-2-ol | 3.588
48 | 6-chloro-1-(ethylpropyl)-7-[2-(trifluoromethyl)(4-pyridyl)]imidazo[4,5-b]pyridin-2-ol | 3.590
49 | 6-chloro-1-(ethylpropyl)-7-[3-(hydroxymethyl)phenyl]imidazo[4,5-b]pyridin-2-ol | 14.377
50 | 6-chloro-1-(ethylpropyl)-7-[3-(methoxymethyl)phenyl]imidazo[4,5-b]pyridin-2-ol | 8.109
51 | 6-chloro-1-(ethylpropyl)-7-[3-(trifluoromethoxy)phenyl]imidazo[4,5-b]pyridin-2-ol | 2.369
52 | 6-chloro-1-(ethylpropyl)-7-[4-(methoxymethyl)phenyl]imidazo[4,5-b]pyridin-2-ol | 34.746
53 | 6-chloro-1-(ethylpropyl)-7-[4-(trifluoromethoxy)phenyl]imidazo[4,5-b]pyridin-2-ol | 0.781
54 | 6-chloro-1-(ethylpropyl)-7-imidazolylimidazo[4,5-b]pyridin-2-ol | 22.2909
55 | 6-chloro-1-(ethylpropyl)-7-pyrazol-3-ylimidazo[4,5-b]pyridin-2-ol | 26.881
56 | 6-chloro-1-(ethylpropyl)-7-pyrazol-4-ylimidazo[4,5-b]pyridin-2-ol | 38.791
57 | 6-chloro-1-(ethylpropyl)-7-pyrazolylimidazo[4,5-b]pyridin-2-ol | 0.3235
58 | 6-chloro-1-(methylethyl)-7-pyrazolylimidazo[4,5-b]pyridin-2-ol | 2.0829
59 | 6-chloro-7-(2-chloro-4-methoxyphenyl)-1-(ethylpropyl)imidazo[4,5-b]pyridin-2-ol | 1.898
60 | 6-chloro-7-(2-chloro-4-methylphenyl)-1-(ethylpropyl)imidazo[4,5-b]pyridin-2-ol | 0.587
61 | 6-chloro-7-(3-chloro(4-pyridyl))-1-(ethylpropyl)imidazo[4,5-b]pyridin-2-ol | 4.471
62 | 6-chloro-7-(5-chloro(2-pyridyl))-1-(methylethyl)imidazo[4,5-b]pyridin-2-ol | 1.781
63 | 6-chloro-7-(5-chloro(3-pyridyl))-1-(ethylpropyl)imidazo[4,5-b]pyridin-2-ol | 1.899
64 | 6-chloro-7-(5-fluoro(2-pyridyl))-1-(methylethyl)imidazo[4,5-b]pyridin-2-ol | 2.323
65 | 7-(1H-indazol-6-yl)-6-chloro-1-(ethylpropyl)imidazo[4,5-b]pyridin-2-ol | 4.216

Reference: US7989469B2, “Certain chemical entities, compositions, and methods” (Cytokinetics, Incorporated, priority 2008, dated 2011)
